Read-outs that look alike come from different tables or passages of the source.

For assay [1], the target named is T1, TRAF6/Uev1A/Ubc13 (Homo sapiens, UniProt Q9Y4K3).
T1 sequence (Q9Y4K3 1-522): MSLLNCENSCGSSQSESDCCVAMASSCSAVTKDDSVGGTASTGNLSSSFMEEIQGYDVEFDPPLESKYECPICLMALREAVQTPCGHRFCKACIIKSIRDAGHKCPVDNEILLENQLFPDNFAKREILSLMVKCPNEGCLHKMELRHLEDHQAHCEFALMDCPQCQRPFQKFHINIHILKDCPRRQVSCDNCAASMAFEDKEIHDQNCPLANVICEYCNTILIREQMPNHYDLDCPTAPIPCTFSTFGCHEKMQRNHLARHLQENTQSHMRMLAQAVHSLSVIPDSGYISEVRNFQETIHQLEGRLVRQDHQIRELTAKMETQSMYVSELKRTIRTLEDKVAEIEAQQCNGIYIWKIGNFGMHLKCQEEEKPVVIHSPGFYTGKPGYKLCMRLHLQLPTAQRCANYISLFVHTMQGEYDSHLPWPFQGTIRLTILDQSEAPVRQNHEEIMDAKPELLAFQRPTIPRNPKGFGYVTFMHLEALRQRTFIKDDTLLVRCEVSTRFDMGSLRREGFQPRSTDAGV
Put plainly: TRAF6/Uev1A/Ubc13 plate-based ubiquitin ligase assay. In kind it is biochemical. In outline:
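Ligase activity was read as luminescence from anti-Flag/HRP detection of Flag-ubiquitin bound to casein-blocked Ni-plates alongside His-ubiquitin after a 1 h room-temperature reaction. Buffer: 62.5 mM Tris pH 7.5, 6.25 mM MgCl2, 1.0 mM DTT, 2 μM ATP; E1, Uev1a/Ubc13 and TRAF6 added last to start. IC50s derived across compound concentrations.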

In assay [2] the test system is H1299 cells. Description: Cell proliferation PAD assay, H1299. The conditions noted are these: Homo sapiens, 48 hours. The format is cell-based. In outline: (§1)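 Cells were seeded at 2,000 per well and dosed 24 h later, in duplicate, with 6.3-fold dilution series from a 10 mM master stock diluted 500-fold into wells. After 48 h at 37 °C, 5% CO2, cells were formamide-fixed, DAPI-stained and imaged to count live, apoptotic and dead cells.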

For assay [3], the system named is A549 cells. Put plainly: Cell proliferation PAD assay, A549. The conditions noted are these: Homo sapiens, 48 hours. The format is cell-based. In outline:
as §1

Where [4] appears, read: NCI-H1299, 6pt, read-out: H1299 6pt.
Where [5] appears, read: NCI-H1299, 3pt, read-out: H1299 3pt.

For the molecule `O=[N+]([O-])c1ccc(Sc2cccc3cccnc23)c2nonc12` [compound 5, 8-[(7-Nitro-2,1,3-benzoxadiazol-4-yl)thio]quinoline], the IC50 is 1 to 20 µM in assay [1]; under 1 µM in assay [2] (setting [4]); under 1 µM in assay [3] (6pt, read-out: A549 6pt).
Take `O=[N+]([O-])c1ccc(Oc2c(Cl)cc(S(=O)(=O)Nc3cccc4nsnc34)cc2Cl)c(Cl)c1` [compound 73, N-2,1,3-benzothiadiazol-4-yl-3,5-dichloro-4-(2-chloro-4-nitrophenoxy)benzenesulfonamide]: the IC50 in assay [1] is 1 to 20 µM; in assay [2] (setting [5]), at least 20 µM; in assay [2] (setting [4]), 1 to 20 µM; in assay [3] (3pt, read-out: A549 3pt), at least 20 µM; in assay [3] (6pt, read-out: A549 6pt), 1 to 20 µM.
Turning to `O=S(=O)(Nc1cccc2nonc12)c1ccc(Oc2ncc(C(F)(F)F)cc2Cl)cc1` [compound 78, N-2,1,3-benzoxadiazol-4-yl-4-{[3-chloro-5-(trifluoromethyl)pyridin-2-yl]oxy}benzenesulfonamide], the IC50 in assay [1] lay in the range of 1 to 20 µM.
As to `O=[N+]([O-])c1ccc(N2CCN(c3cc(C(F)(F)F)ccn3)CC2)c2nonc12` [compound 90, 4-nitro-7-{4-[4-(trifluoromethyl)pyridin-2-yl]piperazin-1-yl}-2,1,3-benzoxadiazole], the IC50 in assay [1] is 1 to 20 µM; in assay [2] (setting [5]), at least 20 µM; in assay [2] (setting [4]), 1 to 20 µM; in assay [3] (3pt, read-out: A549 3pt), at least 20 µM; in assay [3] (6pt, read-out: A549 6pt) it was 1 to 20 µM.
Regarding `O=S(=O)(Nc1cccc2nsnc12)c1ccc(Oc2ccccc2)cc1` [compound 94, N-2,1,3-benzothiadiazol-4-yl-4-phenoxybenzenesulfonamide], in assay [1], the IC50 was in the range of 1 to 20 µM.
Turning to `O=[N+]([O-])c1ccc(N2CCN(c3ncccn3)CC2)c2nonc12` [compound 109, 4-nitro-7-(1,3-(pyrimidin-2-yl)piperazin-1-yl)-2,1,3-benzoxadiazole], the IC50 is 1 to 20 µM in assay [1]; at least 20 µM in assay [2] (setting [5]); at least 20 µM in assay [3] (3pt, read-out: A549 3pt).
In assay [1], `O=[N+]([O-])c1ccc(Oc2ccc(S(=O)(=O)Nc3cccc4nonc34)cc2Cl)c(C(F)(F)F)c1` [compound 114, N-2,1,3-benzoxadiazol-4-yl-3-chloro-4-[4-nitro-2-(trifluoromethyl)phenoxy]benzenesulfonamide] displayed an IC50 of 1 to 20 µM.
With `N#Cc1ccc(N2CCN(c3ccc([N+](=O)[O-])c4nonc34)CC2)nc1` [compound 121, 6-[4-(7-nitro-2,1,3-benzoxadiazol-4-yl)piperazin-1-yl]nicotinonitrile], the IC50 in assay [1] is 1 to 20 µM; in assay [2] (setting [5]) it was at least 20 µM; in assay [3] (3pt, read-out: A549 3pt), at least 20 µM.
As to `Cc1ccc(N2CCN(c3ccc([N+](=O)[O-])c4nonc34)CC2)cc1C` [compound 140, 4-[4-(3,4-dimethylphenyl)piperazin-1-yl]-7-nitro-2,1,3-benzoxadiazole], the IC50 in assay [1] is 1 to 20 µM; in assay [2] (setting [5]), at least 20 µM; in assay [3] (3pt, read-out: A549 3pt) it was at least 20 µM.
On to `N#CC1(c2ccccc2)CCN(c2ccc([N+](=O)[O-])c3nonc23)CC1` [compound 141, 1-(7-nitro-2,1,3-benzoxadiazol-4-yl)-4-phenylpiperidine-4-carbonitrile], for which the IC50 is 1 to 20 µM in assay [1]; at least 20 µM in assay [2] (setting [5]); at least 20 µM in assay [3] (3pt, read-out: A549 3pt).
As for `O=C(c1ccc(F)cc1)C1CCN(c2ccc([N+](=O)[O-])c3nonc23)CC1` [compound 142, (4-fluorophenyl)[1-(7-nitro-2,1,3-benzoxadiazol-4-yl)piperidin-4-yl]methanone], the IC50 was 1 to 20 µM in assay [1]; at least 20 µM in assay [2] (setting [5]); at least 20 µM in assay [3] (3pt, read-out: A549 3pt).
As to `CC1CC(C)CN(c2ccc([N+](=O)[O-])c3nonc23)C1` (centres unmarked) [compound 144, 4-(3,5-dimethylpiperidin-1-yl)-7-nitro-2,1,3-benzoxadiazole], the IC50 is 1 to 20 µM in assay [1] and at least 20 µM in assay [2] (setting [5]).
Consider `Cc1ccc(Cl)cc1N1CCN(c2ccc([N+](=O)[O-])c3nonc23)CC1` [compound 145, 4-[4-(5-chloro-2-methylphenyl)piperazin-1-yl]-7-nitro-2,1,3-benzoxadiazole], for which the IC50 in assay [1] is 1 to 20 µM; in assay [2] (setting [5]) it was at least 20 µM.
Turning to `O=[N+]([O-])c1ccc(N2CCN(c3ccc(O)cc3)CC2)c2nonc12` [compound 146, 4-[4-(7-nitro-2,1,3-benzoxadiazol-4-yl)piperazin-1-yl]phenol], the IC50 in assay [1] lay in the range of 1 to 20 µM; in assay [2] (setting [5]), 1 to 20 µM; in assay [3] (3pt, read-out: A549 3pt), 1 to 20 µM.
On to `O=[N+]([O-])c1ccc(N2CCN(c3ncccc3C(F)(F)F)CC2)c2nonc12` [compound 148, 4-nitro-7-{4-[3-(trifluoromethyl)pyridin-2-yl]piperazin-1-yl}-2,1,3-benzoxadiazole], for which the IC50 in assay [1] is 1 to 20 µM; in assay [2] (setting [5]), at least 20 µM; in assay [3] (3pt, read-out: A549 3pt), at least 20 µM.
As to `O=[N+]([O-])c1ccc(SCCO)c2nonc12` [compound 150, 2-[(7-nitro-2,1,3-benzoxadiazol-4-yl)thio]ethanol], the IC50 in assay [1] was at least 20 µM; in assay [2] (setting [5]), 1 to 20 µM; in assay [2] (setting [4]) it was under 1 µM; in assay [3] (3pt, read-out: A549 3pt), under 1 µM; in assay [3] (6pt, read-out: A549 6pt) it was under 1 µM.
As to `CCOC(=O)c1cc(C#N)c(C)nc1N1CCN(c2ccc([N+](=O)[O-])c3nonc23)CC1` [compound 153, ethyl 5-cyano-6-methyl-2-[4-(7-nitro-2,1,3-benzoxadiazol-4-yl)piperazin-1-yl]nicotinate], the IC50 in assay [1] was 1 to 20 µM; in assay [2] (setting [5]), at least 20 µM; in assay [3] (3pt, read-out: A549 3pt) it was at least 20 µM.
Regarding `O=[N+]([O-])c1ccc(Sc2nc3ccccc3s2)c2nonc12` [compound 158, 4-(1,3-benzothiazol-2-ylthio)-7-nitro-2,1,3-benzoxadiazole], the IC50 in assay [1] lay in the range of 1 to 20 µM.
Take `O=[N+]([O-])c1ccc(N2CCC(O)(c3ccc(Cl)cc3)CC2)c2nonc12` [compound 159, 4-(4-chlorophenyl)-1-(7-nitro-2,1,3-benzoxadiazol-4-yl)piperidin-4-ol]: the IC50 in assay [1] lay within 1 to 20 µM.
Turning to `COC(=O)c1ccc(NS(=O)(=O)c2ccc(F)c3nonc23)cc1` [compound 167, methyl 4-{[(7-fluoro-2,1,3-benzoxadiazol-4-yl)sulfonyl]amino}benzoate], the IC50 in assay [1] was at least 20 µM; in assay [2] (setting [5]) it was 1 to 20 µM; in assay [2] (setting [4]), at least 20 µM; in assay [3] (3pt, read-out: A549 3pt), 1 to 20 µM; in assay [3] (6pt, read-out: A549 6pt), at least 20 µM.
With `N#Cc1cccnc1N1CCN(S(=O)(=O)c2ccc(Cl)c3nonc23)CC1` [compound 170, 2-{4-[(7-chloro-2,1,3-benzoxadiazol-4-yl)sulfonyl]piperazin-1-yl}nicotinomtrile], the IC50 was 1 to 20 µM in assay [1]; 1 to 20 µM in assay [2] (setting [5]); at least 20 µM in assay [2] (setting [4]); 1 to 20 µM in assay [3] (3pt, read-out: A549 3pt); at least 20 µM in assay [3] (6pt, read-out: A549 6pt).
With `O=S(=O)(Oc1ccc(N2CCN(S(=O)(=O)c3ccc(Cl)c4nonc34)CC2)cc1)c1ccc(Cl)c2nonc12` [compound 171, 4-{4-[(7-chloro-2,1,3-benzoxadiazol-4-yl)sulfonyl]piperazin-1-yl}phenyl 7-chloro-2,1,3-benzoxadiazole-4-sulfonate], the IC50 is 1 to 20 µM in assay [1]; 1 to 20 µM in assay [2] (setting [5]); at least 20 µM in assay [2] (setting [4]); at least 20 µM in assay [3] (3pt, read-out: A549 3pt); at least 20 µM in assay [3] (6pt, read-out: A549 6pt).
`O=S(=O)(c1ccc(Sc2cccc3cccnc23)c2nonc12)N1CCN(c2ncc(C(F)(F)F)cc2Cl)CC1` [compound 177, 8-{[7-({4-[3-chloro-5-(trifluoromethyl)pyridin-2-yl]piperazin-1-yl}sulfonyl)-2,1,3-benzoxadiazol-4-yl]thio}quinoline]: the IC50 is 1 to 20 µM in assay [1]; at least 20 µM in assay [2] (setting [5]); at least 20 µM in assay [2] (setting [4]); at least 20 µM in assay [3] (3pt, read-out: A549 3pt); at least 20 µM in assay [3] (6pt, read-out: A549 6pt).
`COC(=O)c1ccc(NS(=O)(=O)c2c(Cl)ccc3nonc23)cc1` [compound 178, methyl 4-{[(5-chloro-2,1,3-benzoxadiazol-4-yl)sulfonyl]amino}benzoate]: the IC50 was at least 20 µM in assay [1]; 1 to 20 µM in assay [2] (setting [5]); under 1 µM in assay [2] (setting [4]); 1 to 20 µM in assay [3] (3pt, read-out: A549 3pt); at least 20 µM in assay [3] (6pt, read-out: A549 6pt).
Molecule `O=[N+]([O-])c1ccc(N2CCN(c3ncc(C(F)(F)F)cc3Cl)CC2)c2nonc12` [compound 315, 4-{4-[3-chloro-5-(trifluoromethyl)pyrindin-2-yl]piperazin-1-yl}-7-nitro-2,1,3-benzoxadiazole] had an IC50 in assay [1] of under 1 µM.

The values are drawn from patent US20050282818A1, “Ubiquitin ligase inhibitors” (Rigel Pharmaceuticals, Inc., priority 2004, published 2005).
